Experimental data as given in US20140303164A1, “THERAPEUTIC COMPOUNDS” (Gilead Sciences, Inc., priority 2013, published 2014).

Experiments:
[1] = Test B: Cytotoxicity Assay; type: cell-based; conditions: human, uninfected MT-4 cells, same protocol as Test A
Summary of the method: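 Uninfected MT-4 cells (2000 per well) incubated with diluted compound at 37° C. for 5 days, following the antiviral protocol without HIV-IIIb.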

HIV-IIIb = assay: Test A: Antiviral Assay in MT4 Cells; type: cell-based, HIV-1; conditions: Human immunodeficiency virus 1, IIIB, MT4, 120 h; for inhibition at 0.2 µM: read-out: % inhibition at 0.2 μM; for inhibition at 2 µM: read-out: % inhibition at 2 μM
Experimental: Test A: Antiviral Assay in MT4 Cells
MT-4 cells were next mixed with HIV-IIIb at an m.o.i of 0.003 for 1 hour, after which time 35 μL of virus/cell mixture (2000 cells) was immediately added to each well containing 40 μL of diluted compound. The plates were then incubated at 37° C. for 5 days. […] Cell lysis was carried out by incubating at room temperature for 10 min and then chemiluminescence was read.

Row | Compound | CC50 at 5 days [1] | inhibition at 0.2 µM (HIV-IIIb) | inhibition at 2 µM (HIV-IIIb)
1 | Cn1nc(NS(C)(=O)=O)c2c(Cl)ccc(-c3ccc(C#CC(C)(C)O)nc3[C@H](Cc3cc(F)cc(F)c3)NC(=O)Cc3cccc(Cl)c3Cl)c21 [Compound 129, (S)—N-(1-(3-(4 chloro-1-methyl-3-(methylsulfonamido)-1H-indazol-7-yl)-6-(3-hydroxy-3-methylbut-1-yn-1-yl)pyridin-2-yl)-2-(3,5-difluorophenyl)ethyl)-2-(2,3-dichlorophenyl)acetamide] | 12.1 µM | 54% | 82%
2 | COc1ccc(-c2ccc(C#CC(C)(C)C)nc2[C@H](Cc2cc(F)cc(F)c2)NC(=O)Cn2nc(C(F)F)c3c2C(F)(F)[C@@H]2C[C@H]32)c2nnc(NS(C)(=O)=O)n12 [Compound 130, 2-((3bS,4aR)-3-(difluoromethyl)-5,5-difluoro-3b,4,4a,5-tetrahydro-1H-cyclopropa[3,4]cyclopenta[1,2-c]pyrazol-1-yl)-N—((S)-2-(3,5-difluorophenyl)-1-(6-(3,3-dimethylbut-1-yn-1-yl)-3-(5-methoxy-3-(methylsulfonamido)-[1,2,4]triazolo[4,3-a]pyridin-8-yl)pyridin-2-yl)ethyl)acetamide] | 23.2 µM | 80% | 85%
3 | Cn1nc(NS(C)(=O)=O)c2c(Cl)ccc(-c3ccc(C#CC(C)(C)C)nc3[C@H](Cc3cc(F)cc(F)c3)NC(=O)Cn3nc(C(F)F)c4c3C(F)(F)[C@@H]3C[C@H]43)c21 [Compound 131E, N—((S)-1-(3-(4-chloro-1-methyl-3-(methylsulfonamido)-1H-indazol-7-yl)-6-(3,3-dimethylbut-1-yn-1-yl)pyridin-2-yl)-2-(3,5-difluorophenyl)ethyl)-2-((3b-S,4aR)-3-(difluoromethyl)-5,5-difluoro-3b,4,4a,5-tetrahydro-1H-cyclopropa[3,4]cyclopenta[1,2-c]pyrazol-1-yl)acetamide] | 22.5 µM | 95% | 96%
4 | Cn1nc(NS(C)(=O)=O)c2c(F)ccc(-c3ccc(C#CC(C)(C)O)nc3[C@H](Cc3cc(F)cc(F)c3)NC(=O)Cn3nc(C(F)(F)F)c4c3C(F)(F)[C@@H]3C[C@H]43)c21 [Compound 132C, 2-((3bS,4aR)-5,5-difluoro-3-(trifluoromethyl)-3b,4,4a,5-tetrahydro-1H-cyclopropa[3,4]cyclopenta[1,2-c]pyrazol-1-yl)-N—((S)-2-(3,5-difluorophenyl)-1-(3-(4-fluoro-1-methyl-3-(methylsulfonamido)-1H-indazol-7-yl)-6-(3-hydroxy-3-methylbut-1-yn-1-yl)pyridin-2-yl)ethyl)acetamide] | 24.2 µM | 92% | 92%
5 | Cc1ccc(-c2ccc(C#CC(C)(C)C)nc2[C@H](Cc2cc(F)cc(F)c2)NC(=O)Cn2nc(C(F)F)c3c2C(F)(F)[C@@H]2C[C@H]32)c2nnc(NS(C)(=O)=O)n12 [Compound 133, 2-((3bS,4aR)-3-(difluoromethyl)-5,5-difluoro-3b,4,4a,5-tetrahydro-1H-cyclopropa[3,4]cyclopenta[1,2-c]pyrazol-1-yl)-N—((S)-2-(3,5-difluorophenyl)-1-(6-(3,3-dimethylbut-1-yn-1-yl)-3-(5-methyl-3-(methylsulfonamido)-[1,2,4]triazolo[4,3-a]pyridin-8-yl)pyridin-2-yl)ethyl)acetamide] | 16.8 µM | 90% | 90%
6 | Cn1ncc2c(Cl)ccc(-c3ccc(C#CC(C)(C)O)nc3[C@H](Cc3cc(F)cc(F)c3)NC(=O)Cn3nc(C(F)F)c4c3C(F)(F)[C@@H]3C[C@H]43)c21 [Compound 137C, N—((S)-1-(3-(4-chloro-1-methyl-1H-indazol-7-yl)-6-(3-hydroxy-3-methylbut-1-yn-1-yl)pyridin-2-yl)-2-(3,5-difluorophenyl)ethyl)-2-((3b-S,4aR)-3-(difluoromethyl)-5,5-difluoro-3b,4,4a,5-tetrahydro-1H-cyclopropa[3,4]cyclopenta[1,2-c]pyrazol-1-yl)acetamide] | 7.88 µM | 93% | 100%
7 | CC(C)(O)C#Cc1ccc(-c2cccn3c(C(F)F)nnc23)c([C@H](Cc2cc(F)cc(F)c2)NC(=O)Cn2nc(C(F)F)c3c2C(F)(F)[C@@H]2C[C@H]32)n1 [Compound 138, 2-((3b-S,4aR)-3-(difluoromethyl)-5,5-difluoro-3b,4,4a,5-tetrahydro-1H-cyclopropa[3,4]cyclopenta[1,2-c]pyrazol-1-yl)-N—((S)-1-(3-(3-(difluoromethyl)-[1,2,4]triazolo[4,3-a]pyridin-8-yl)-6-(3-hydroxy-3-methylbut-1-yn-1-yl)pyridin-2-yl)-2-(3,5-difluorophenyl)ethyl)acetamide] | 33.4 µM | 61% | 83%
8 | COc1cc(-c2ccc(Cl)c3c(NS(C)(=O)=O)nn(C)c23)c([C@H](Cc2cc(F)cc(F)c2)NC(=O)Cn2nc(C(F)F)c3c2C(F)(F)[C@@H]2C[C@H]32)nc1C#CC(C)(C)O [Compound 139B, N—((S)-1-(3-(4-chloro-1-methyl-3-(methylsulfonamido)-1H-indazol-7-yl)-6-(3-hydroxy-3-methylbut-1-yn-1-yl)-5-methoxypyridin-2-yl)-2-(3,5-difluorophenyl)ethyl)-2-((3b-S,4aR)-3-(difluoromethyl)-5,5-difluoro-3b,4,4a,5-tetrahydro-1H-cyclopropa[3,4]cyclopenta[1,2-c]pyrazol-1-yl)acetamide] | 15.4 µM | 94% | 94%
9 | Cn1nc(NS(C)(=O)=O)c2c(Cl)ccc(-c3ccc(C#CC(C)(C)O)nc3[C@H](Cc3cc(F)cc(F)c3)NC(=O)Cn3nc4c(c3Cl)[C@H]3C[C@H]3C4(F)F)c21 [Compound 140M, N—((S)-1-(3-(4-chloro-1-methyl-3-(methylsulfonamido)-1H-indazol-7-yl)-6-(3-hydroxy-3-methylbut-1-yn-1-yl)pyridin-2-yl)-2-(3,5-difluorophenyl)ethyl)-2-((3b-S,4aR)-3-chloro-5,5-difluoro-3b,4,4a,5-tetrahydro-2H-cyclopropa[3,4]cyclopenta[1,2-c]pyrazol-2-yl)acetamide] | 20.4 µM | 98% | 98%
10 | C[C@H](O)C#Cc1ccc(-c2ccc(Cl)c3c(NS(C)(=O)=O)nn(C)c23)c([C@H](Cc2cc(F)cc(F)c2)NC(=O)Cn2nc(C(F)F)c3c2C(F)(F)[C@@H]2C[C@H]32)n1 [Compound 142, N—((S)-1-(3-(4-chloro-1-methyl-3-(methylsulfonamido)-1H-indazol-7-yl)-6-((S)-3-hydroxybut-1-yn-1-yl)pyridin-2-yl)-2-(3,5-difluorophenyl)ethyl)-2-((3bS,4aR)-3-(difluoromethyl)-5,5-difluoro-3b,4,4a,5-tetrahydro-1H-cyclopropa[3,4]cyclopenta[1,2-c]pyrazol-1-yl)acetamide] | 12.6 µM | 92% | 92%
11 | C[C@@H](O)C#Cc1ccc(-c2ccc(Cl)c3c(NS(C)(=O)=O)nn(C)c23)c([C@H](Cc2cc(F)cc(F)c2)NC(=O)Cn2nc(C(F)F)c3c2C(F)(F)[C@@H]2C[C@H]32)n1 [Compound 143, N—((S)-1-(3-(4-chloro-1-methyl-3-(methylsulfonamido)-1H-indazol-7-yl)-6-((R)-3-hydroxybut-1-yn-1-yl)pyridin-2-yl)-2-(3,5-difluorophenyl)ethyl)-2-((3b-S,4aR)-3-(difluoromethyl)-5,5-difluoro-3b,4,4a,5-tetrahydro-1H-cyclopropa[3,4]cyclopenta[1,2-c]pyrazol-1-yl)acetamide] | 11.3 µM | 98% | 98%
12 | Cn1nc(NS(C)(=O)=O)c2c(Cl)ccc(-c3ccc(C#CC(C)(O)CF)nc3[C@H](Cc3cc(F)cc(F)c3)NC(=O)Cn3nc(C(F)F)c4c3C(F)(F)[C@@H]3C[C@H]43)c21 (stereo partly drawn) [Compound 144, N-((1S)-1-(3-(4-chloro-1-methyl-3-(methylsulfonamido)-1H-indazol-7-yl)-6-(4-fluoro-3-hydroxy-3-methylbut-1-yn-1-yl)pyridin-2-yl)-2-(3,5-difluorophenyl)ethyl)-2-((3b-S,4aR)-3-(difluoromethyl)-5,5-difluoro-3b,4,4a,5-tetrahydro-1H-cyclopropa[3,4]cyclopenta[1,2-c]pyrazol-1-yl)acetamide] | 16.2 µM | 95% | 95%
13 | Cn1nc(NS(C)(=O)=O)c2c(Cl)ccc(-c3ccc(C#CC(C)(C)O)nc3[C@H](Cc3cc(F)cc(F)c3)NC(=O)Cn3nc(N)c4c3C(F)(F)[C@@H]3C[C@H]43)c21 [Compound 148B, 2-((3bS,4aR)-3-amino-5,5-difluoro-3b,4,4a,5-tetrahydro-1H-cyclopropa[3,4]cyclopenta[1,2-c]pyrazol-1-yl)-N—((S)-1-(3-(4-chloro-1-methyl-3-(methylsulfonamido)-1H-indazol-7-yl)-6-(3-hydroxy-3-methylbut-1-yn-1-yl)pyridin-2-yl)-2-(3,5-difluorophenyl)ethyl)acetamide] | 23.3 µM | 83% | 83%
14 | Cn1nc(NS(C)(=O)=O)c2c(Cl)ccc(-c3ccc(C#CC(C)(C)O)nc3[C@H](Cc3cc(F)cc(F)c3)NC(=O)Cn3nc(Cl)c4c3C(F)(F)[C@@H]3C[C@H]43)c21 [Compound 149, N—((S)-1-(3-(4-chloro-1-methyl-3-(methylsulfonamido)-1H-indazol-7-yl)-6-(3-hydroxy-3-methylbut-1-yn-1-yl)pyridin-2-yl)-2-(3,5-difluorophenyl)ethyl)-2-((3bS,4aR)-3-chloro-5,5-difluoro-3b,4,4a,5-tetrahydro-1H-cyclopropa[3,4]cyclopenta[1,2-c]pyrazol-1-yl)acetamide] | 26.7 µM | 86% | 86%
